From BindingDB's records for patent US10383835 (University of California, 2019)

Target: T1, Bifunctional epoxide hydrolase 2 (Sus scrofa, UniProt Q6Q2C2)
T1 sequence (Q6Q2C2 whole entry): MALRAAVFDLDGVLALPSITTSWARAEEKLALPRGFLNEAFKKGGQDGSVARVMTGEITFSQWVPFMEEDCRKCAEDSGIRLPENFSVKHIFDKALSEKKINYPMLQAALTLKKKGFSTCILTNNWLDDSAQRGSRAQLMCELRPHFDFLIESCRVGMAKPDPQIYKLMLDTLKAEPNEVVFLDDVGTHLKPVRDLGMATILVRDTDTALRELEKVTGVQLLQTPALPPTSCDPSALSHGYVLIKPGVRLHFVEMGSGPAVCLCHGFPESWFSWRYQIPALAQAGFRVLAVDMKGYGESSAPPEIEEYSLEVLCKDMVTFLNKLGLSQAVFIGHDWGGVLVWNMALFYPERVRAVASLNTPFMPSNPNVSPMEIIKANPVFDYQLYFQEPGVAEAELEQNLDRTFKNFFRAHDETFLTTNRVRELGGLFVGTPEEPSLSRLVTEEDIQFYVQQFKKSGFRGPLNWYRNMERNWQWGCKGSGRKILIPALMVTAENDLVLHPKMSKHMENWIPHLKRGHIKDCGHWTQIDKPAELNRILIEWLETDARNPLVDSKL
Experiment: Inhibition Assay
From the text: The enzyme also can be detected based on the binding of specific ligands to the catalytic site which either immobilize the enzyme or label it with a probe such as dansyl, fluoracein, luciferase, green fluorescent protein or other reagent. The enzyme can be assayed by its hydration of EETs, its hydrolysis of an epoxide to give a colored product. The assays are normally carried out with a recombinant enzyme following affinity purification.

CC(=O)N1CCC(NC(=O)Nc2ccc(OC(F)(F)F)cc2)CC1 [US10383835, Compound 1555]
IC50: 201 nM
